Data reported in US20090156551A1, “NOVEL COMPOSITION” (priority 2007, published 2009).
Like-named read-outs stand apart in the source and are kept apart here.

What was measured:
Inflammatory mediator NO = test: Inhibition of nitric oxide synthesis in LPS-stimulated RAW264.7 macrophages (Griess reaction); type: cell-based, murine; settings: for IC50: Mus musculus; for anti-inflammatory activity (in words): NO inhibition
Description: The anti-inflammatory effects were determined in cellular assays by measuring the inhibition of the synthesis of nitric oxide and/or pro-inflammatory prostaglandins (PGE2). PGE2 plays a critical role in the inflammation process, while nitric oxide (NO) is a hallmark of inflammation in various chronic inflammatory diseases including various forms of arthritis, gastro-intestinal diseases and metabolic syndrome X. The effects on the inflammatory response were tested in cellular assays using a murine macrophage cell line, RAW264.7. The cells were purchased from ATCC (Manassas, Va., USA) and cultured in DMEM containing streptomycin/penicillin, non-essential amino acids and 10% fetal calf serum (FCS). In order to test a large range of concentration of MA and HO as well as mixtures thereof, cells (˜50'000/well) were seeded into flat-bottomed microtiter plates and cultured for one day. Cells were then starved in complete medium containing 0.25% FCS (D-025). After overnight culture, medium was removed and replaced by 100 μL of D-025 containing the test compounds at twice the final concentration. Subsequently, 100 μL of D-025 containing 2 μg/ml LPS was added (i.e. final LPS concentration of 1 μg/ml) and the cells cultured for 24 hours. Substances were usually tested in a concentration range from 0.2 to 50 μM in two-fold dilution steps. All treatments were done in duplicates and several experimental series were done for each treatment. Concentrations of nitrite which was rapidly formed from nitric oxide released by cells were determined by the Griess reaction using sodium nitrite as standard. Briefly, 50 μl of supernatant was mixed with Griess reagent 1 (25 μL) and Griess reagent 2 (25 μL), centrifuged and the optical density at 540 nm determined. PGE2 secreted into the cell culture medium was determined by EIA obtained from Cayman Chemicals (Ann Harbor, Wis., USA) and used according to the manufacturer's instructions. All determinations were done in duplicates and at various dilutions of the culture supernatant. IC50 values for LPS-stimulated cells were calculated using a […] least-square fitting equation [y=A+((B−A)/(1+((C−x)̂D))] for best-fit curves (Excel fit software program).
In order to determine the synergistic concentration range of MA to HO, various mixtures thereof were tested for their anti-inflammatory by measuring the inhibition of the synthesis of nitric oxide (NO) as outlined above.
The synergistic effect of a combination of a mixture of MA/HO (1:3 w/w) with glucosamine sulfate (ratio MA/HO (1:3 w/w) to glucosamine sulfate: 50 μmol/L to 50 μmol/L) or chondroitin sulfate (ratio MA/HO (1:3 w/w) to chondroitin sulfate: 13.3 mg/L (i.e. 50 μmol/L) to 500 mg/L) on the inhibition of the inflammatory mediator nitric oxide (NO) has been evaluated based on the method published by Chou and Talalay (A simple generalized equation for the analysis of multiple inhibitions of Michealis-Menten kinetic systems. J. Biol. Chem. 1977. 252: 6438-6442).

Collagen I = test: Gene expression in normal human chondrocytes, RT-PCR; type: cell-based; settings: for Expression level (%) Collagen I: at 12.5 μmol/L, 4 hours, % of unstimulated cells (100%)
Aggrecan = test: as above; type: cell-based; settings: 4 hrs
Description: (§1) The effect of MA and HO, mixtures thereof as well as combinations with glucosamine sulfate and chondroitin sulfate on the expression of human aggrecan, collagen I, collagen II, or chondrocyte transcription factors (SOX-6, -9) was measured in vitro in normal human chondrocytes (derived from knee) (CC-2550; Cambrex, respectively). A control experiment without the compounds was done concomitantly to compare the expression of these genes (percentage expression of gene in controls was set to 100%).

TIMP-1 = test: as above; type: cell-based; settings: for Expression level (%) TIMP-1: at 12.5 μmol/L, 4 hours, % of unstimulated cells (100%)
Description: [Worded in the source for another target; this target is reported under the same test.] as §1

Collagen II = test: as above; type: cell-based; settings: 4 hrs; 50 μmol/L
MMP-9 = test: as above; type: cell-based; settings: stim. 4 hrs; 50 μmol/L
ADAMTS-4 = test: as above; type: cell-based; settings: unstim. 4 d; 50 μmol/L
[1] = system: Inflammatory mediator PGE2; test: Inhibition of PGE2 synthesis in LPS-stimulated RAW264.7 macrophages (EIA); type: cell-based, murine; settings: Mus musculus, read-out: IC50 Observed, inflammatory mediator PGE2
Description: The anti-inflammatory effects were determined in cellular assays by measuring the inhibition of the synthesis of nitric oxide and/or pro-inflammatory prostaglandins (PGE2). […] The cells were purchased from ATCC (Manassas, Va., USA) and cultured in DMEM containing streptomycin/penicillin, non-essential amino acids and 10% fetal calf serum (FCS). […] Cells were then starved in complete medium containing 0.25% FCS (D-025). After overnight culture, medium was removed and replaced by 100 μL of D-025 containing the test compounds at twice the final concentration. Subsequently, 100 μL of D-025 containing 2 μg/ml LPS was added (i.e. final LPS concentration of 1 μg/ml) and the cells cultured for 24 hours. […] Concentrations of nitrite which was rapidly formed from nitric oxide released by cells were determined by the Griess reaction using sodium nitrite as standard. Briefly, 50 μl of supernatant was mixed with Griess reagent 1 (25 μL) and Griess reagent 2 (25 μL), centrifuged and the optical density at 540 nm determined. PGE2 secreted into the cell culture medium was determined by EIA obtained from Cayman Chemicals (Ann Harbor, Wis., USA) and used according to the manufacturer's instructions. […] IC50 values for LPS-stimulated cells were calculated using a two-parametric least-square fitting equation [y=A+((B−A)/(1+((C−x)̂D))] for best-fit curves (Excel fit software program).

I-κBalpha = test: Inflammatory gene expression in RAW 264.7 cells, quantitative RT-PCR; type: cell-based, murine; settings: at 12.5 μmol/L, 4 hours; relative to LPS-stimulated cells (100%)
Description: (§2) Inflammatory responses are orchestrated by the transient activation of a variety of genes. Their regulation is tightly controlled via signaling pathways and eventually proteins that control the expression of genes such as transcription factors. Consequently, the effect of the compounds (each of them and various ratios of mixtures) has also been evaluated at the level of the expression of genes that are involved in the inflammatory response. These comprise genes of the prostaglandin synthesis pathway (e.g. COX-2), interleukins (e.g. IL1-α, IL-1β, IL-6), cytokines (e.g. TNF-α), inducible nitric oxide synthase (iNOS) and chemokines. RAW 264.7 cells were stimulated in the presence of different concentrations of substances. After 4 hours, RNA was extracted and the expression of genes determined by quantitative RT-PCR as described by Richard, […]. and […]. in Mol Nutr Food Res 2005. 49: 431-442. In table 3, the effect of MA and HO alone as well as of mixtures thereof in the indicated molar ratios on the expression of inflammatory genes or on anti-inflammatory transcription factors (I-κBα) is shown. The level of mRNA was determined by RT-PCR and expressed relative to the level observed in LPS-stimulated cells (i.e. without compounds).

IL-10 = test: as above; type: cell-based, murine; settings: at 12.5 μmol/L, 4 hours; relative to LPS-stimulated cells (100%)
Description: as §2

IL-1alpha = test: as above; type: cell-based, murine; settings: at 12.5 μmol/L, 4 hours; relative to LPS-stimulated cells (100%)
Description: as §2

TNF-alpha = test: as above; type: cell-based, murine; settings: at 12.5 μmol/L, 4 hours; relative to LPS-stimulated cells (100%)
Description: as §2

SOX-6 = test: Gene expression in normal human chondrocytes, RT-PCR; type: cell-based; settings: at 12.5 μmol/L, 4 hours; % of unstimulated cells (100%)
SOX-9 = test: as above; type: cell-based; settings: for Expression level (%) SOX-9: at 12.5 μmol/L, 4 hours, % of unstimulated cells (100%)
Description: as §1

IL-RI Receptor for Il-1 = test: as above; type: cell-based; settings: at 12.5 μmol/L, 4 hours; control set at 100%
[2] = system: normal human chondrocytes; test: Effects on chondrocytes (cartilage build-up), overall gene expression; type: cell-based; settings: 12.5 μmol/L, un- (non-IL1 beta-) stimulated cells
Description: as §1
In table 2.1 the effect of MA and HO alone as well as of mixtures thereof in the indicated molar ratios on the expression of genes that are involved in cartilage build-up is shown.

ADAMTS-5 = test: Gene expression in normal human chondrocytes, RT-PCR; type: cell-based; settings: stim. 4 hrs; 500 mg/L; % of IL1β-treated cells
Description: [Worded in the source for another target; this target is reported under the same test.] as §1

MMP-2 = test: as above; type: cell-based; settings: 4 d; 500 mg/L; % of IL1β-treated cells
[3] = LPS 1 μg/ml, 24 hours, RAW264.7, read-out: IC50 Observed, inflammatory mediator NO

Compound	anti-inflammatory activity (in words) (Inflammatory mediator NO; single substance)	IC50 (Inflammatory mediator NO; [3]) [µM]	Expression level (%) I-κBalpha (I-κBalpha) [%]	Expression level (%) IL-10 (IL-10) [%]	Expression level (%) IL-1alpha (IL-1alpha) [%]	Expression level (%) TNF-alpha (TNF-alpha) [%]	Expression level (%) Collagen I (Collagen I) [%]	Expression level (%) SOX-6 (SOX-6) [%]	Expression level (%) SOX-9 (SOX-9) [%]	Expression level (%) TIMP-1 (TIMP-1) [%]	Expression level (%) IL-RI (Receptor for Il-1) (IL-RI Receptor for Il-1) [%]	cartilage build-up effect (in words) [2]	also measured
N[C@H]1C(O)O[C@H](CO)[C@@H](O)[C@@H]1O.O=S(=O)(O)O (stereo partly drawn) [Glucosamine sulfate, glucosamine sulfate]	marginal anti-inflammatory	–	–	–	–	–	–	–	–	–	–	–	IC50 (Inflammatory mediator NO; single substance, LPS-stimulated RAW264.7, read-out: IC50 Nitric Oxide): > 100 µM; level of gene expression Collagen 1 (Collagen I; 4 hrs, 50 μmol/L): 121%; level of gene expression Aggrecan (Aggrecan; 50 μmol/L): 81%; level of gene expression TIMP-1 (TIMP-1; 4 hrs, 50 μmol/L): 110%; level of gene expression Collagen II (Collagen II): 154%; level of gene expression MMP-9 (MMP-9): 114%; level of gene expression ADAMTS-4 (ADAMTS-4): 101%
C=CCc1ccc(O)c(-c2ccc(O)c(CC=C)c2)c1 [HO, 3′,5-Diallyl-2,4′-biphenyldiol]	–	4.58	96	94	68	81	100	130	124	106	89	favors cartilage build-up	IC50 ([1]; LPS 1 μg/ml, 24 hours, RAW264.7): 2.05 µM
C=CCc1ccc(O)c(-c2cc(CC=C)ccc2O)c1 [MA, 5,5′-Diallyl-2,2′-biphenyldiol]	–	8.91	99	136	70	96	78	94	110	96	98	to lesser extent	IC50 ([1]; RAW264.7, 24 h): 5.09 µM
Chondroitin sulfate	marginal anti-inflammatory	–	–	–	–	–	–	–	–	–	–	–	IC50 Nitric Oxide (Inflammatory mediator NO; single substance, LPS-stimulated RAW264.7): >50 µg/mL; level of gene expression ADAMTS-5 (ADAMTS-5): 107%; level of gene expression Aggrecan (Aggrecan; stim., 500 mg/L): 62%; level of gene expression SOX-9 (SOX-9; 500 mg/L, % of unstimulated cells): 147%; level of gene expression TIMP-1 (TIMP-1; unstim., 4 d, 500 mg/L): 106%; level of gene expression MMP-2 (MMP-2): 93%
